The subject of experiment [1] is iPS cells (WT1+ epicardial cells). As to the kind of experiment: Epicardial (WT1+) progenitor induction from iPS cells, CHIR dose titration / ABC. It is filed as cell-based, human. Here is the method: Cardiac mesoderm cells were then dissociated and contacted with a low concentration of Wnt inhibitor, XAV939, (Table 4) for two days to be specified into a WT1 epicardial lineage (FIG. 3A). The percentage of epicardial cells were measured in single CHIR, ABC, and double CHIR conditions. Epicardial induction with single CHIR or ABC step produced a mixed population of epicardial cells and cardiomyocytes. The percentage of WT1+ epicardial cells ranged from 30% WT1 to 90% WT1. These epicardial progenitors were used directly for cardiac fibroblast induction without additional passaging or purification of epicardial cells. A dose titration of CHIR was performed on iPS cells. […] A dose of 6 μM CHIR on Day 1 generated a population of 60% WT1 epicardial progenitor cells that have characteristic cobblestone morphology by Day 14 (FIG. 3C). […] When Activin and BMP were added with the single CHIR, the epicardial cells retained a flattened cobble stone morphology and dark, round nucleus. Cell-cell borders became less pronounced. There was no need to passage the epicardial cells. […] This was visible by increased cell numbers, decreased cell size, and more elongated morphology.

In a further experiment the test system is ROCK1/ROCK2. Particulars: competing with ATP; cited from earlier work.
Experiment [2] concerns isogenic tri-culture cardiac microtissues (iPSC-derived cardiomyocytes, endothelial cells, cardiac fibroblasts). In words: Calcium transient / inotropic response of isogenic tri-culture cardiac microtissues. Type of experiment: cell-based, human. Particulars: for calcium amplitude inotropic response with increased CF content: DIV 14, 10,000 total cells, 20% endothelial cells, varying cardiac fibroblast content. The source says:
For the cardiac tri-culture microtissue assay, cryopreserved iPSC-derived cell types were combined in a specific ratio and formed into microtissues in microwell plates (FIG. 5A). Microtissues containing 65% iCell Cardiomyocytes, 20% iCell Endothelial cells, and 15% iPSC derived cardiac fibroblasts are shown in FIG. 5B. After 1-2 days, the microtissues were contracting.
Microtissues were fed a co-culture medium (Table 8) to support all three cell types. […] Microtissues were generated from three donor lines 11713, 01279, and 01434. Microtissues contained either iPSC-derived cardiomyocytes only or were tri-culture, containing isogenic iPSC-derived cardiomyocytes, iPSC-derived endothelial cells, and iPSC-derived cardiac fibroblasts. All microtissues were assayed for response to isoproterenol on Day 14 of culture. […] This response was in tri-culture microtissues from all three donor lines, in two independently produced lots of cardiac fibroblasts from donor 01434, and in microtissues containing cardiac fibroblasts from two independently derived clones from donor 11713 (11713.008 and 11713.847).
Response to dobutamine (DOB), digoxin (DIG), isoproterenol (ISO), and epinephrine (EPI) were assessed at DIV 14 on cardiac tri-culture microtissues comprised of 10,000 total cells and 20% iCell Endothelial Cells and iCell Cardiomyocytes and varying concentrations of iPSC derived cardiac fibroblasts (CF). […] (FIG. 6B).
(§1) Tri-culture microtissues were made from Normal Healthy Control (NHC) and isogenic LMNA-L35P iPSC-derived cell types. Fourteen days post microtissue formation, microtissues were challenged with isoproterenol.

Experiment [3] concerns isogenic LMNA-L35P iPSC-derived tri-culture microtissues. In words: Calcium transient response of LMNA-L35P disease model tri-culture microtissues. It is filed as cell-based, human. Particulars: LMNA-L35P disease model microtissue; fourteen days post formation.
From the text: as §1

Experiment [4] concerns iPSC derived cardiac fibroblasts. In words: Activation of iPSC-derived cardiac fibroblasts with TGFβ. It is filed as cell-based, human. Here is the method:
The cardiac fibroblasts were thawed and plated on vitronectin-coated plates at 10 k/cm^2 and activated with TGFβ. TGFβ was added at 20 ng/mL or 40 ng/mL to activate cardiac fibroblasts on Day 2, with a media change on Day 4. On Day 5, media supernatants were collected and analyzed for fibronectin secretion by a Human FN ELISA Kit Cat #BMS2028. On Day 3 and Day 5, cardiac fibroblasts were harvested and counted by ViCell-XR. After 5 days cells were collected for flow cytometry.

For experiment [5], the system named is epicardial progenitors from the ABC method. As to the kind of experiment: Cardiac fibroblast differentiation in serum with varying basic FGF, CD29 positive cells. It is filed as cell-based, human. Particulars: increasing concentrations of basic FGF, serum-containing medium. Here is the method: Cardiac fibroblasts were induced in serum containing conditions on Day 25. The cells were fed DMEM-Low glucose, 10% FBS, Ascorbic Acid, and 200 ng/mL basic FGF and purified through successive passaging (Table 6). Cardiac fibroblasts were >85% positive for TE-7 and CD29 and quiescent (i.e., less than 5% αSMA) (FIG. 4A).

On to `Cc1c[nH]c(-c2cnc(NCCNc3ccc(C#N)cn3)nc2-c2ccc(Cl)cc2Cl)n1` [CHIR, CHIR99021], for which the “WT1 epicardial progenitor cells” value in experiment [1] (6 μM CHIR on Day 1, single CHIR method) is on record as 60%. Further, in experiment [1] (dose on Day 1, single CHIR method, read on Day 9), the “effect of increasing dose on percentage of WT1+ epicardial cells” value is listed as “did not increase the percentage of WT1+ epicardial cells”.

By IC50 is commonly meant the concentration that gives 50% inhibition. Consider `C[C@@H](N)[C@H]1CC[C@H](C(=O)Nc2ccncc2)CC1` [Y-27632], for which the IC50 in the experiment on ROCK1/ROCK2 is 800 nM.

With `C[C@H]1O[C@@H](O[C@H]2[C@@H](O)C[C@H](O[C@H]3[C@@H](O)C[C@H](O[C@H]4CC[C@@]5(C)[C@H](CC[C@@H]6[C@@H]5C[C@@H](O)[C@]5(C)[C@@H](C7=CC(=O)OC7)CC[C@]65O)C4)O[C@@H]3C)O[C@@H]2C)C[C@H](O)[C@@H]1O` [digoxin], in experiment [2], the “calcium amplitude inotropic response with increased CF content” value was “increased calcium amplitude inotropic response”.

`CC(CCc1ccc(O)cc1)NCCc1ccc(O)c(O)c1` (centres unmarked) [dobutamine]: the “calcium amplitude inotropic response with increased CF content” value in experiment [2] is recorded as “increased calcium amplitude inotropic response”.

Turning to `CNC[C@H](O)c1ccc(O)c(O)c1` [epinephrine], the “calcium amplitude inotropic response with increased CF content” value in experiment [2] is recorded as “increased calcium amplitude inotropic response”.

In the case of `CC(C)NCC(O)c1ccc(O)c(O)c1` (centres unmarked) [isoproterenol], the calcium transient amplitude result in experiment [2] (100 nM isoproterenol, Normal Healthy Control microtissues, fourteen days post microtissue formation) was “increase in calcium transient amplitude”. The “calcium transient amplitude response to isoproterenol” value in experiment [2] (Day 14 of culture, three donor lines) is reported as “increase in calcium transient amplitude”. In addition, the “beat rate by calcium transient” value in experiment [2] (in the presence of isoproterenol) was “increase in beat rate”. Also, the “response to isoproterenol (calcium transient amplitude)” value in experiment [3] was “did not respond”.

As to TGFβ, the “gene expression by quantitative real-time PCR” value in experiment [4] (20 ng/mL TGFβ for 4 days, single CHIR and double CHIR cardiac fibroblasts) is “increased POSTN, DDR2, COL1A1, COL1A2, GJA1, and ACTA2 expression”. For the same compound, the “alpha smooth muscle actin expressing population (flow cytometry)” value in experiment [4] (TGFβ 20 ng/mL or 40 ng/mL added Day 2, cells collected after 5 days) is on record as “alpha smooth muscle actin expressing population was seen to emerge”. In addition, the fibronectin secretion entry in experiment [4] (cardiac fibroblasts from serum-containing and serum-free induction) is reported as “increased fibronectin secretion”.

As to “basic FGF: basic fibroblast growth factor used for cardiac fibroblast induction”, the “percentage of CD29 positive cells” value in experiment [5] is “increase the percentage of CD29 positive cells”.

(Values after patent US12714728B2, “Methods for the production of cardiac fibroblasts” (FUJIFILM Cellular Dynamics, Inc., priority 2022, dated 2026).)
